Test results taken from patent US20060167057A1, “Compounds for the treatment of CNS and amyloid associated diseases” (priority 2004, published 2006).

Target: T1, L1 transport system (large neutral amino acid carrier, L1-system carrier) (Rattus norvegicus, UniProt Q63016)
T1 construct: functionality of their endogenous transporters such as the L1-system carrier; endogenous in cells; host or cells: rat primary cerebrovascular (brain microcapillary) endothelial cells, RBEC
Experiment: Competitive binding assay to the brain L1 transport system (L-[U-14C]phenylalanine on rat primary cerebrovascular endothelial cells)
Experimental: Compound samples in PBS (without Ca^+2, Mg^+2)-glucose 30 mM-HEPES 10 mM—DMSO 1% as prepared in Example 1 were thawed and left for at least 30 minutes at 20-23° C. before preparation of the following sub-dilutions for the competitive binding assay: • 200 μL of the stock solution were added to 800 μL PBS (without Ca^+2, Mg^+2)-Glucose-HEPES-1% DMSO (PBSD-1) [diluted 1:5 for a final 1:5 dilution] • 100 μL (1/5 dilution above) were added to 900 μL PBSD-1 [diluted 1:10 for a final 1:50 dilution] • 100 μL (1/50 dilution above) were added to 900 μL PBSD-1 [diluted 1:10 for a final 1:500 dilution]
These sub-dilutions were used immediately or stored overnight at 4° C. before the competitive binding assay. A volume of 45 μL of each of the compound dilutions (1:5, 1:50, 1:500) in PBSD-1 was added to the appropriate wells in the dilution plate.
Brains from sixty 24-day-old rats were dissected individually on a sterile lint moistened with ice cold Hanks' balanced salt solution (Gibco BRL, Grand Island, N.Y.) containing 10 mM HEPES (medium 1) supplemented with 0.1% BSA. Cerebellum, striatum, optic nerves, and brain stem (white matter) were removed. After a mid-sagittal section of the brain, the meninges and leptomeningeal debris were removed by rolling a sterile dry cotton swab on the cortices. (Ichikawa N, Naora K, Hirano H, Hashimoto M, Masumura S, and Iwamoto K (1996). Isolation and primary culture of rat cerebral microvascular endothelial cells for studying drug transport in vitro. J Pharmacol Toxicol Meth 36: 45-52.). Clean cortices were minced in pieces of ≈2 mm^3 in 15 mL of ice-cold medium 1-0.1% BSA. The preparation was divided into 4 sterile pre-weighed tubes and centrifuged at 330× g at 20-25° C. for 5 min. Tubes were weighed and pre-warmed (37° C.) and medium 1 with 0.5% BSA containing 0.3% collagenase and 10 μg/mL DNAse 1 (Roche, Laval, Quebec, Canada) were added to each tube (1 mL/g of tissue).
The brain-collagenase mixture was vigorously agitated in a water bath at 37° C. for 90 min. Fifteen min before the end of the digestion, the tissue was homogenized using a 10-mL pipette until a creamy mixture was obtained (≈20 aspirations). Cells were washed by adding medium 1 with 0.1% BSA to the homogenate (26 mL/tube) and centrifuged at 100× g at 20-25° C. for 7 min. This washing step was repeated 3 more times, once for 5 min and twice for 3 min. Each pellet was re-suspended in 25 mL of a 15% dextran solution prepared in medium 1 with 0.1% BSA and centrifuged at 3200× g at 4° C. for 25 min to isolate vessels from neural tissue and dextran layers. Vascular pellets were re-suspended in 5 mL Ca^++—Mg^++-free-medium 1 with 0.1% BSA (medium 2) at 20-25° C. and transferred in a 50-mL tube. Remaining vessels were collected by rinsing the tubes and pooling the rinsing suspension. (Rupnick M A, Carey A, and Williams S K (1988). Phenotypic diversity in cultured cerebral microvascular endothelial cells in vitro. Cell Develop Biol 24: 435-444.)
The vascular preparation was filtered and rinsed (20 mL of medium 2) through a sterile 355-μm mesh. The 355-μm filtrate was sequentially filtered twice (20 mL of medium 2) through sterile 112-μm meshes and rinsed (Stanimirovic D B, Wong J, Ball R, and Durkin J P (1995). Free radical-induced endothelial membrane dysfunction at the site of the blood-brain barrier: relationship between lipid peroxidation, Na,K-ATPase activity, and ^51Cr release. Neurochem Res 20:1417-1427.) and the latter filtrate was filtered and rinsed through a sterile 20-μm mesh. A final step of filtration and rinse was repeated through a double layer of 20-μm meshes. All 20-μm meshes, which retained the microcapillaries, were then transferred into a 50-mL tube containing 20 mL of a 0.1% collagenase/dispase (Roche) solution in medium 2 supplemented with 10 μg/mL DNAse 1 and 0.147 μg/mL tosyl-lysine-chloromethyl-ketone (Sigma Chemical Co., Oakville, Ontario, Canada) (medium 3).

T1 sequence (Q63016 whole entry): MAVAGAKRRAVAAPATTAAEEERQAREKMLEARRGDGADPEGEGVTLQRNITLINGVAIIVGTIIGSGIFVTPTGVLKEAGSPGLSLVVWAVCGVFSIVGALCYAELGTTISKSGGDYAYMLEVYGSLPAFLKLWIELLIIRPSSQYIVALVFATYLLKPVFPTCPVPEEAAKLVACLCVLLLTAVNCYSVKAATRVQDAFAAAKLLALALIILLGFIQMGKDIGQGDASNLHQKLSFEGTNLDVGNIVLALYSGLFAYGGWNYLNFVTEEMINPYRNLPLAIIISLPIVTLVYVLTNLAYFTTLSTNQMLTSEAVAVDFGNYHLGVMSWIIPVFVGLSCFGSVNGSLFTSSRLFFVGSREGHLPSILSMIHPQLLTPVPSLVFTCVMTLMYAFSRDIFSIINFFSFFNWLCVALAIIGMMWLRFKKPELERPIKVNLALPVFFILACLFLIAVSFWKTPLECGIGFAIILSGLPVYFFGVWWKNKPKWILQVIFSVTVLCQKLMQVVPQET
T1 sequence (Q794F9 whole entry partner): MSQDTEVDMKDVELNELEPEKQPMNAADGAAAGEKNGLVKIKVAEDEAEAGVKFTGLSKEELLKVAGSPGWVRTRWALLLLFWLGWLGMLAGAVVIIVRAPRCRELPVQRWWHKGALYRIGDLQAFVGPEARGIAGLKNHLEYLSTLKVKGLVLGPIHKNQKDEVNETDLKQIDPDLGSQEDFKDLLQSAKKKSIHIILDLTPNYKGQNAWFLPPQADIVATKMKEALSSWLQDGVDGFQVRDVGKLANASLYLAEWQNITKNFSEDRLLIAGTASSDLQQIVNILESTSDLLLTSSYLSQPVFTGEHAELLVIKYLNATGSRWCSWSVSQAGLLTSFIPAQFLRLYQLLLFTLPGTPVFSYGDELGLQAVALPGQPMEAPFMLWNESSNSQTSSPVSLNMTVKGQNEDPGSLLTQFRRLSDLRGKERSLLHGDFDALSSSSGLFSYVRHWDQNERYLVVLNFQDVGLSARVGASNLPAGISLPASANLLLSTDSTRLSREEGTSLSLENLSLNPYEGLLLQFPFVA

| Structure (SMILES) | Comparison with the Binding of Phenylalanine (10^−4 M) | Comparison with the Binding of Phenylalanine (10^−5 M) | Comparison with the Binding of Phenylalanine (10^−6 M) |
| --- | --- | --- | --- |
| Cc1nnc(SCc2cccc(CC(N)C(=O)O)c2)s1 (stereo not drawn) [Compound 81] | 2 (10 < X < 20 Rank 2) | 3 (X > 20 Rank 3) | 0 (X < 0 Rank 0) |
| Cn1cnnc1Sc1cccc(-c2cccc(CC(N)C(=O)O)c2)c1 (stereo not drawn) [Compound 82] | 2 (10 < X < 20 Rank 2) | 3 (X > 20 Rank 3) | 1 (0 < X < 10 Rank 1) |
| NC(Cc1cccc(CN2CCN(c3cccc(Cl)c3)CC2)n1)C(=O)O (stereo not drawn) [Compound 86] | 1 (0 < X < 10 Rank 1) | 2 (10 < X < 20 Rank 2) | 1 (0 < X < 10 Rank 1) |
| CCOC(=O)c1c[nH]c(SCc2ccc(-c3ccc(CC(N)C(=O)O)cc3)cc2)nc1=O (stereo not drawn) [Compound 87] | 2 (10 < X < 20 Rank 2) | 3 (X > 20 Rank 3) | 3 (X > 20 Rank 3) |
| CN(C)CCn1nnnc1SCc1cccc(CC(N)C(=O)O)n1 (stereo not drawn) [Compound 88] | 1 (0 < X < 10 Rank 1) | 1 (0 < X < 10 Rank 1) | 1 (0 < X < 10 Rank 1) |
| NC(Cc1ccc(-c2ccc(CSc3nc(-c4ccccc4)c(-c4ccccc4)[nH]3)cc2)cc1)C(=O)O (stereo not drawn) [Compound 89] | 1 (0 < X < 10 Rank 1) | 1 (0 < X < 10 Rank 1) | 1 (0 < X < 10 Rank 1) |
| COc1ccc2[nH]c(SCc3ccc(-c4ccc(CC(N)C(=O)O)cc4)cc3)nc2c1 (stereo not drawn) [Compound 91] | 1 (0 < X < 10 Rank 1) | 1 (0 < X < 10 Rank 1) | 0 (X < 0 Rank 0) |
| Cc1nc(SCc2cccc(CC(N)C(=O)O)n2)sc1CC(=O)O (stereo not drawn) [Compound 92] | 0 (X < 0 Rank 0) | 0 (X < 0 Rank 0) | 1 (0 < X < 10 Rank 1) |
| NC(Cc1ccc(-c2ccc(CSc3ncccc3C(=O)O)cc2)cc1)C(=O)O (stereo not drawn) [Compound 93] | 0 (X < 0 Rank 0) | 0 (X < 0 Rank 0) | 1 (0 < X < 10 Rank 1) |
| NC(Cc1cccc(CSc2nc3cc([N+](=O)[O-])ccc3[nH]2)n1)C(=O)O (stereo not drawn) [Compound 94] | 1 (0 < X < 10 Rank 1) | 1 (0 < X < 10 Rank 1) | 1 (0 < X < 10 Rank 1) |
| NC(Cc1ccc(-c2ccc(CSc3ncccn3)cc2)cc1)C(=O)O (stereo not drawn) [Compound 95] | 2 (10 < X < 20 Rank 2) | 3 (X > 20 Rank 3) | 2 (10 < X < 20 Rank 2) |
| Cc1nnc(SCc2cccc(CC(N)C(=O)O)n2)s1 (stereo not drawn) [Compound 96] | 0 (X < 0 Rank 0) | 1 (0 < X < 10 Rank 1) | 1 (0 < X < 10 Rank 1) |
| Cn1cnnc1SCc1ccc(-c2ccc(CC(N)C(=O)O)cc2)cc1 (stereo not drawn) [Compound 97] | 2 (10 < X < 20 Rank 2) | 3 (X > 20 Rank 3) | 2 (10 < X < 20 Rank 2) |
| NC(Cc1cccc(CN2CCN(c3ccccn3)CC2)n1)C(=O)O (stereo not drawn) [Compound 98] | 0 (X < 0 Rank 0) | 1 (0 < X < 10 Rank 1) | 0 (X < 0 Rank 0) |
| NC(Cc1ccc(-c2ccc(CN3CCN(c4ncccn4)CC3)cc2)cc1)C(=O)O (stereo not drawn) [Compound 99] | 0 (X < 0 Rank 0) | 0 (X < 0 Rank 0) | 1 (0 < X < 10 Rank 1) |
| NC(Cc1cccc(-c2cccc(N3CCN(c4cccc(Cl)c4)CC3)c2)c1)C(=O)O (stereo not drawn) [Compound 101] | 2 (10 < X < 20 Rank 2) | 3 (X > 20 Rank 3) | 3 (X > 20 Rank 3) |
| N#CC1(c2ccccc2)CCN(Cc2cccc(CC(N)C(=O)O)c2)CC1 (stereo not drawn) [Compound 102] | 1 (0 < X < 10 Rank 1) | 1 (0 < X < 10 Rank 1) | 0 (X < 0 Rank 0) |
| CN(C)CCn1nnnc1Sc1cccc(-c2cccc(CC(N)C(=O)O)c2)c1 (stereo not drawn) [Compound 103] | 2 (10 < X < 20 Rank 2) | 2 (10 < X < 20 Rank 2) | 2 (10 < X < 20 Rank 2) |
| NC(Cc1cccc(CSc2nc(-c3ccccc3)c(-c3ccccc3)o2)c1)C(=O)O (stereo not drawn) [Compound 104] | 2 (10 < X < 20 Rank 2) | 3 (X > 20 Rank 3) | 3 (X > 20 Rank 3) |
| NC(Cc1cccc(-c2cccc(N3CCN(c4ccc(F)cc4)CC3)c2)c1)C(=O)O (stereo not drawn) [Compound 105] | 2 (10 < X < 20 Rank 2) | 2 (10 < X < 20 Rank 2) | 2 (10 < X < 20 Rank 2) |
| NC(Cc1cccc(-c2cccc(Sc3nc4cc([N+](=O)[O-])ccc4s3)c2)c1)C(=O)O (stereo not drawn) [Compound 109] | 2 (10 < X < 20 Rank 2) | 3 (X > 20 Rank 3) | 3 (X > 20 Rank 3) |
| NC(Cc1cccc(CSc2nc3ccccc3c(=O)[nH]2)c1)C(=O)O (stereo not drawn) [Compound 110] | 1 (0 < X < 10 Rank 1) | 1 (0 < X < 10 Rank 1) | 1 (0 < X < 10 Rank 1) |
| Cc1nnc(Sc2cccc(-c3cccc(CC(N)C(=O)O)c3)c2)s1 (stereo not drawn) [Compound 111] | 2 (10 < X < 20 Rank 2) | 3 (X > 20 Rank 3) | 3 (X > 20 Rank 3) |
| CC(=O)c1ccc(N2CCN(Cc3cccc(CC(N)C(=O)O)c3)CC2)cc1 (stereo not drawn) [Compound 112] | 2 (10 < X < 20 Rank 2) | 3 (X > 20 Rank 3) | 3 (X > 20 Rank 3) |
| NC(Cc1cccc(-c2cccc(N3CCN(c4ccccn4)CC3)c2)c1)C(=O)O (stereo not drawn) [Compound 113] | 0 (X < 0 Rank 0) | 0 (X < 0 Rank 0) | 2 (10 < X < 20 Rank 2) |
| NC(Cc1cccc(CSc2ccc3ccccc3n2)c1)C(=O)O (stereo not drawn) [Compound 114] | 0 (X < 0 Rank 0) | 0 (X < 0 Rank 0) | 2 (10 < X < 20 Rank 2) |
| NC(Cc1cccc(-c2cccc(N3CCc4ccccc4C3)c2)c1)C(=O)O (stereo not drawn) [Compound 115] | 0 (X < 0 Rank 0) | 0 (X < 0 Rank 0) | 1 (0 < X < 10 Rank 1) |
